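Step 1: Grow cells in 96-well plates. Step 2: Expose to compound for 48 hours at 5 concentrations. Step 3: Interpolate endpoints linearly; if unreached, use highest concentration. At the GI50, growth is halved.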 Calls of active or inactive are those of the source. No stated cut-off is given here; in the data, active = GI50 up to about 1.1 µM and inactive = higher. Peptide text beside a SMILES is read from it.
Tests used:
Experiment in all cases: NCI tumour cell line growth inhibition, 48 h
A498 = system: A498
ACHN = system: ACHN
COLO 205 = system: COLO 205
HCT-116 = system: HCT-116
HL-60 = system: HL-60
HOP-62 = system: HOP-62
KM12 = system: KM12
M14 = system: M14
MDA-MB-435 = system: MDA-MB-435
NCI-H23 = system: NCI-H23
NCI-H522 = system: NCI-H522
SF-268 = system: SF-268
SF-539 = system: SF-539
SK-MEL-28 = system: SK-MEL-28
SK-MEL-2 = system: SK-MEL-2
SNB-75 = system: SNB-75
SR = system: SR
SW-620 = system: SW-620
UACC-62 = system: UACC-62

| Structure (SMILES) | GI50 (A498) | GI50 (ACHN) | GI50 (COLO 205) | GI50 (HCT-116) | GI50 (HL-60) | GI50 (HOP-62) | GI50 (KM12) | GI50 (M14) | GI50 (MDA-MB-435) | GI50 (NCI-H23) | GI50 (NCI-H522) | GI50 (SF-268) | GI50 (SF-539) | GI50 (SK-MEL-28) | GI50 (SK-MEL-2) | GI50 (SNB-75) | GI50 (SR) | GI50 (SW-620) | GI50 (UACC-62) |
| --- | --- | --- | --- | --- | --- | --- | --- | --- | --- | --- | --- | --- | --- | --- | --- | --- | --- | --- | --- |
| CC(=O)NC(CS)C(=O)NC(CO)C(=O)NC(CO)C(=O)NC(Cc1c[nH]c2ccccc12)C(=O)N1CCCC1C(=O)NC(CO)C(=O)NC(Cc1c[nH]c2ccccc12)C(=O)NC(Cc1c[nH]cn1)C(=O)NC(CO)C(=O)NC(Cc1c[nH]c2ccccc12)C(=O)NCC(=O)NCC(=O)NC(C)C(=O)NC(CCC(N)=O)C(=O)NC(CCCCN)C(=O)NC(C)C(=O)NC(CCCNC(=N)N)C(=O)NC(CCCCN)C(N)=O (stereo unspecified) (Ac-CSSWPSWHSWGGAQKARK-NH2; configuration not given here) | > 50 µM (inactive) | 17.7 µM (inactive) | 12.8 µM (inactive) | 34 µM (inactive) | 12.4 µM (inactive) | > 50 µM (inactive) | 11.6 µM (inactive) | 23.2 µM (inactive) | 15.7 µM (inactive) | 14.8 µM (inactive) | 20.5 µM (inactive) | 16.7 µM (inactive) | 17.1 µM (inactive) | 11.1 µM (inactive) | 26.4 µM (inactive) | 13.9 µM (inactive) | 11.8 µM (inactive) | 23.4 µM (inactive) | 10.9 µM (inactive) |
| CCCc1ccc(OCC(=O)N/N=C/c2c(-c3ccccc3)[nH]c3ccccc23)cc1 | 14.4 µM (inactive) | 13.1 µM (inactive) | 3.43 µM (inactive) | 8.97 µM (inactive) | 3.96 µM (inactive) | 12.9 µM (inactive) | 4.91 µM (inactive) | 11.5 µM (inactive) | 2.77 µM (inactive) | 13.6 µM (inactive) | 14.6 µM (inactive) | 27.7 µM (inactive) | 16.2 µM (inactive) | 20.1 µM (inactive) | 3.23 µM (inactive) | 19.2 µM (inactive) | 3.85 µM (inactive) | 10.6 µM (inactive) | 11.9 µM (inactive) |
| Cc1nc(O)c(O)c(CN2CCCCC2)n1 | > 100 µM (inactive) | > 100 µM (inactive) | > 100 µM (inactive) | > 100 µM (inactive) | 42.7 µM (inactive) | > 100 µM (inactive) | > 100 µM (inactive) | > 100 µM (inactive) | > 100 µM (inactive) | > 100 µM (inactive) | > 100 µM (inactive) | > 100 µM (inactive) | > 100 µM (inactive) | > 100 µM (inactive) | > 100 µM (inactive) | > 100 µM (inactive) | > 100 µM (inactive) | > 100 µM (inactive) | > 100 µM (inactive) |
| CC(=O)[C@H]1[C@H](O)C[C@@]2(C)[C@@H]3CCc4cc(O)c(OC5OC(CO)C(O)C(O)C5O)cc4C3(C)C(=O)C[C@]12C (stereo partly specified) | > 100 µM (inactive) | > 100 µM (inactive) | > 100 µM (inactive) | > 100 µM (inactive) | > 100 µM (inactive) | > 100 µM (inactive) | > 100 µM (inactive) | > 100 µM (inactive) | > 100 µM (inactive) | > 100 µM (inactive) | > 100 µM (inactive) | > 100 µM (inactive) | > 100 µM (inactive) | > 100 µM (inactive) | > 100 µM (inactive) | > 100 µM (inactive) | > 100 µM (inactive) | > 100 µM (inactive) | > 100 µM (inactive) |
| Cc1ccc2c(c1)Nc1cc(C(F)(F)F)ccc1[PH]2=O (stereo unspecified) | 9.53 µM (inactive) | 16.6 µM (inactive) | 16.1 µM (inactive) | 42.2 µM (inactive) | 29.3 µM (inactive) | 29.1 µM (inactive) | 31.5 µM (inactive) | 65.2 µM (inactive) | 37.6 µM (inactive) | 22.2 µM (inactive) | 21.7 µM (inactive) | 34 µM (inactive) | 21.8 µM (inactive) | 78.5 µM (inactive) | 31 µM (inactive) | 11.8 µM (inactive) | 37.4 µM (inactive) | 23.4 µM (inactive) | 10.5 µM (inactive) |
| CN(Cc1cnc2nc(N)nc(N)c2n1)c1ccc(C(=O)NCCCC(=O)O)cc1 | > 100 µM (inactive) | 6.78 µM (inactive) | > 100 µM (inactive) | 3.39 µM (inactive) | > 100 µM (inactive) | 58.6 µM (inactive) | 8.38 µM (inactive) | 7.55 µM (inactive) | > 25.4 µM (inactive) | 37.3 µM (inactive) | 16.2 µM (inactive) | 29.9 µM (inactive) | 8.75 µM (inactive) | > 100 µM (inactive) | > 100 µM (inactive) | > 62.7 µM (inactive) | 4.99 µM (inactive) | 5.7 µM (inactive) | 12.6 µM (inactive) |
| CCCCCN1C(=O)C(Cc2ccccc2)N=C(c2ccc(O)cc2)c2cc(Cl)ccc21 (stereo unspecified) | > 33.7 µM (inactive) | 13 µM (inactive) | 2.96 µM (inactive) | 7.94 µM (inactive) | 2.98 µM (inactive) | 23.7 µM (inactive) | 10.1 µM (inactive) | 11.2 µM (inactive) | 9.53 µM (inactive) | 4.98 µM (inactive) | 2.55 µM (inactive) | 8.73 µM (inactive) | 22.2 µM (inactive) | 15.1 µM (inactive) | 14.6 µM (inactive) | 4.61 µM (inactive) | 2.97 µM (inactive) | 10.9 µM (inactive) | 10.3 µM (inactive) |
| COC(=O)C1=C(C)NC2(O)C=CC(=O)C3C(=O)N(c4ccccc4)C(=O)C132 (stereo unspecified) | > 100 µM (inactive) | > 100 µM (inactive) | 36.5 µM (inactive) | 73.6 µM (inactive) | 63.8 µM (inactive) | > 100 µM (inactive) | > 100 µM (inactive) | 43.1 µM (inactive) | 64.7 µM (inactive) | > 100 µM (inactive) | 32.5 µM (inactive) | > 100 µM (inactive) | > 100 µM (inactive) | 32.5 µM (inactive) | > 100 µM (inactive) | > 100 µM (inactive) | 76.4 µM (inactive) | 56.5 µM (inactive) | 97.1 µM (inactive) |
| Cc1ccccc1NC(=S)N/N=C(/c1ccccc1)c1ccccn1 | 0.398 µM (active) | < 0.01 µM (active) | < 0.01 µM (active) | < 0.01 µM (active) | < 0.0736 µM (active) | 0.0331 µM (active) | 0.0405 µM (active) | < 0.027 µM (active) | 0.757 µM (active) | < 0.01 µM (active) | 0.0902 µM (active) | 0.0904 µM (active) | 0.384 µM (active) | 2.3 µM (inactive) | 3.36 µM (inactive) | 0.933 µM (active) | < 0.0262 µM (active) | < 0.01 µM (active) | 0.171 µM (active) |
| C=C1CC(Cn2ccc(=O)[nH]c2=O)(c2ccc(Cl)cc2)OC1=O (stereo unspecified) | 16.4 µM (inactive) | 5.15 µM (inactive) | 1.73 µM (inactive) | 2.3 µM (inactive) | 8.47 µM (inactive) | 18.2 µM (inactive) | 14 µM (inactive) | 3.56 µM (inactive) | 8.15 µM (inactive) | 5.48 µM (inactive) | 0.839 µM (active) | 19.8 µM (inactive) | 15.6 µM (inactive) | 4.3 µM (inactive) | 5.65 µM (inactive) | 15.1 µM (inactive) | 2.02 µM (inactive) | 1.83 µM (inactive) | 5.15 µM (inactive) |
| Cc1c(O)c(OC2OC(CO)C(O)C(O)C2O)cc2c1C=C[C@@H]1[C@@]2(C)C(=O)C[C@]2(C)[C@@H]([C@@](C)(O)C(O)/C=C/C(C)(C)O)[C@H](O)C[C@@]12C (stereo partly specified) | > 100 µM (inactive) | > 100 µM (inactive) | > 100 µM (inactive) | > 100 µM (inactive) | > 100 µM (inactive) | > 100 µM (inactive) | > 100 µM (inactive) | > 100 µM (inactive) | > 100 µM (inactive) | > 100 µM (inactive) | > 100 µM (inactive) | > 100 µM (inactive) | > 100 µM (inactive) | > 100 µM (inactive) | > 100 µM (inactive) | > 100 µM (inactive) | > 100 µM (inactive) | > 100 µM (inactive) | > 100 µM (inactive) |
| Cc1cccc(C[C@@]2(SCc3ccccc3)C(C)(C)[C@@H]3CC[C@@]2(C)C3)n1 | 15.3 µM (inactive) | 15.5 µM (inactive) | 15.6 µM (inactive) | 14.7 µM (inactive) | 13.3 µM (inactive) | 23.4 µM (inactive) | 16.4 µM (inactive) | 14.7 µM (inactive) | 24 µM (inactive) | 13.9 µM (inactive) | 14.3 µM (inactive) | 16.1 µM (inactive) | 23.3 µM (inactive) | 19.5 µM (inactive) | 13.9 µM (inactive) | 15.2 µM (inactive) | 14.6 µM (inactive) | 15 µM (inactive) | 13.7 µM (inactive) |
| O=C(CCc1ccc(O)c(O)c1)NCCc1cc(O)c(O)c(O)c1 | > 100 µM (inactive) | 33.8 µM (inactive) | 37.8 µM (inactive) | 18.6 µM (inactive) | 49.5 µM (inactive) | 45.7 µM (inactive) | 25.4 µM (inactive) | 22.4 µM (inactive) | 17.6 µM (inactive) | 15.8 µM (inactive) | 17.2 µM (inactive) | 41.1 µM (inactive) | > 100 µM (inactive) | > 100 µM (inactive) | 21.8 µM (inactive) | 50.6 µM (inactive) | 26.9 µM (inactive) | 18.8 µM (inactive) | 90.8 µM (inactive) |
| Cc1nn(C)c2nc3ccc(Cl)cc3c(-c3ccccc3)c12 | > 100 µM (inactive) | > 100 µM (inactive) | > 100 µM (inactive) | > 100 µM (inactive) | > 100 µM (inactive) | > 100 µM (inactive) | > 100 µM (inactive) | > 100 µM (inactive) | > 100 µM (inactive) | > 100 µM (inactive) | > 100 µM (inactive) | > 100 µM (inactive) | > 100 µM (inactive) | > 100 µM (inactive) | > 100 µM (inactive) | > 100 µM (inactive) | > 100 µM (inactive) | > 100 µM (inactive) | > 100 µM (inactive) |
